Patent publication US8158622B2, “Pyrrolopyridine-2-carboxylic acid amide inhibitors of glycogen phosphorylase” (Prosidion Limited, priority 2003, dated 2012)

Molecular target: T1, Rabbit muscle glycogen phosphorylase a (Oryctolagus cuniculus, UniProt P00489)
T1 construct: purchased Sigma P1261
T1 sequence (P00489 2-843 limits assumed): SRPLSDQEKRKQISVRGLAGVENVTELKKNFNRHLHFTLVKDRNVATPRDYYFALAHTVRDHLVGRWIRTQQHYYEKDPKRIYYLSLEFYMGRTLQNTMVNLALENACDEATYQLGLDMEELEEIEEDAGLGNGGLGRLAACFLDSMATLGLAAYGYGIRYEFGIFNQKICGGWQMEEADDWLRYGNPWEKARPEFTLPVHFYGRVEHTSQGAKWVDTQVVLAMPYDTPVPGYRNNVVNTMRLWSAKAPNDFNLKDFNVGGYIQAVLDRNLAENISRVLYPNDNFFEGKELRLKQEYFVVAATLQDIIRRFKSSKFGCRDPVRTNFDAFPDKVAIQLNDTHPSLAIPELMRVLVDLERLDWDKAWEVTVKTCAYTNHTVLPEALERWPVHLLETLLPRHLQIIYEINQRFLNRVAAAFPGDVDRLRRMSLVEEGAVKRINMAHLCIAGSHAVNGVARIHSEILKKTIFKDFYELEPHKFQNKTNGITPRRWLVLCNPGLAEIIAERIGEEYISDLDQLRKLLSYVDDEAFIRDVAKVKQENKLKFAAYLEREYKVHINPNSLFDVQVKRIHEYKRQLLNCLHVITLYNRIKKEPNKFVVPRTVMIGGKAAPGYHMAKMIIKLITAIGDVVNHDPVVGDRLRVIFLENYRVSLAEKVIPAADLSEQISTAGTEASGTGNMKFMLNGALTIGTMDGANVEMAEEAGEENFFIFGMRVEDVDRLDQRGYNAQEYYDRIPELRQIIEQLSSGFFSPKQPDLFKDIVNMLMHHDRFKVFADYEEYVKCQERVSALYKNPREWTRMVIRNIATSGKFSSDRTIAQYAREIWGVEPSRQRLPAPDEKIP
Experiment: Glycogen phosphorylase assay in vitro (reverse direction, malachite green phosphate detection)
Assay type: biochemical
Conditions: 50 mM Hepes pH 7.2, 7.5 mM glucose, 0.5 mM glucose-1-phosphate, 1 mg/mL glycogen, 30° C. for 30 min
Text: α-D-Glucose-1-phosphate (disodium salt), Glycogen, D-Glucose, Malachite Green Hydrochloride, Ammonium Molybdate tetrahydrate, BSA, HEPES and rabbit muscle phosphorylase α (P1261) were purchased from Sigma. All other reagents were analytical grade.
Glycogen Phosphorylase Assay In Vitro:
An assay for glycogen phosphorylase activity in the reverse direction was developed based on the method described by Engers et al., Can. J. Biochem., 1970, 48, 746-754]. Rabbit muscle glycogen phosphorylase a (Sigma) was reconstituted at a stock concentration of 100 μg/mL in 25 mM Tris/HCl. […] in a 96-well plate in a final volume of 100 μL containing 50 mM Hepes pH 7.2, 7.5 mM glucose, 0.5 mM glucose-1-phosphate and 1 mg/mL glycogen. After incubation at 30° C. for 30 min, the inorganic phosphate released from glucose-1-phosphate was measured by the addition of 150 μL of malachite green/molybdate solution prepared as follows: 5 mL of 4.2% ammonium molybdate in 4N HCl, 15 mL of 0.045% malachite green, 50 μL of Tween 20. Following a 30 min incubation at rt, the absorbance was measured at 620 nm. For IC50 determination, 10 μL of a serial dilution of compound (100 μM to 0.004 μM) in DMSO was added to each reaction in duplicate with the equivalent concentration of DMSO added to the control uninhibited reaction. Dose response curves were then obtained by plotting % inhibition versus log10 compound concentration. IC50 is defined as the concentration of compound achieving 50% inhibition under the assay conditions described.

| Structure (SMILES) | IC50 |
| --- | --- |
| CN(C)C(=O)[C@H](Cc1ccccc1)NC(=O)c1cc2ncccc2[nH]1 [Example 24, 1H-Pyrrolo[3,2-b]pyridine-2-carboxylic acid (1-dimethylcarbamoyl-2-(S)-phenylethyl)amide] | ≥ 100 µM |
| COc1ccc2[nH]c(C(=O)N[C@@H](Cc3ccccc3)C(=O)N(C)C)cc2n1 [Example 23, 5-Methoxy-1H-pyrrolo[3,2-b]pyridine-2-carboxylic acid (1-dimethylcarbamoyl-2-(S)-phenylethyl)amide] | ≥ 100 µM |
| O=C(NCCOc1ccccc1)c1cc2ncccc2[nH]1 [Example 25, 1H-Pyrrolo[3,2-b]pyridine-2-carboxylic acid (2-phenoxyethyl)amide] | ≥ 100 µM |
| O=C(NCCNc1ccccc1)c1cc2ccncc2[nH]1 [Example 21, 1H-Pyrrolo[2,3-c]pyridine-2-carboxylic acid (2-phenylaminoethyl)amide] | ≥ 100 µM |

Next, values leading:

| IC50 | Structure (SMILES) |
| --- | --- |
| ≥ 100 µM | O=C(NCCNCc1ccccc1)c1cc2cc(Cl)ncc2[nH]1 [Example 29, 5-Chloro-1H-pyrrolo[2,3-c]pyridine-2-carboxylic acid (2-benzylaminoethyl)amide] |
| ≥ 100 µM | O=C(NCCN1CCN(Cc2ccccc2)CC1)c1cc2cc(Cl)ncc2[nH]1 [Example 28, 5-Chloro-1H-pyrrolo[2,3-c]pyridine-2-carboxylic acid [2-(4-benzylpiperazin-1-yl)ethyl]amide] |
| ≥ 100 µM | O=C(NCCNc1ccccc1)c1cc2ncccc2[nH]1 [Example 26, 1H-Pyrrolo[3,2-b]pyridine-2-carboxylic acid (2-phenylaminoethyl)amide] |
